Measurements: the NIST ThermoML archive (doi:10.1016/j.jct.2008.09.002)

Legend:
[1] = xn = mol fraction of the nth substance listed; conditions: 101.3 kPa, Liquid, Vibrating tube method
[2] = molar heat capacity at constant pressure; xn = mol fraction of the nth substance listed; conditions: 101.3 kPa, Liquid, Small sample (50 mg) DSC

C[N+](=O)[O-] [nitromethane] + CCCCn1cc[n+](C)c1.F[B-](F)(F)F
Conditions	mass density [kg/m3]	molar heat capacity at constant pressure [J/K/mol]
[1], 293.15 K, x2 = 0.1007	1167	–
[1], 293.15 K, x2 = 0.2066	1181.1	–
[1], 293.15 K, x2 = 0.2597	1185.9	–
[1], 293.15 K, x2 = 0.3069	1189.3	–
[1], 293.15 K, x2 = 0.3957	1194.4	–
[1], 293.15 K, x2 = 0.41	1195	–
[1], 293.15 K, x2 = 0.4866	1198.1	–
[1], 293.15 K, x2 = 0.5058	1198.7	–
[1], 293.15 K, x2 = 0.6016	1201.5	–
[1], 293.15 K, x2 = 0.6455	1202.6	–
[1], 293.15 K, x2 = 0.6837	1203.4	–
[1], 293.15 K, x2 = 0.7793	1205.1	–
[1], 293.15 K, x2 = 0.8867	1206.5	–
[1], 298.15 K, x2 = 0.1007	1161.3	–
[1], 298.15 K, x2 = 0.2066	1176.1	–
[1], 298.15 K, x2 = 0.2597	1181.1	–
[1], 298.15 K, x2 = 0.3069	1184.7	–
[1], 298.15 K, x2 = 0.3957	1190	–
[1], 298.15 K, x2 = 0.41	1190.6	–
[1], 298.15 K, x2 = 0.4866	1193.9	–
[1], 298.15 K, x2 = 0.5058	1194.6	–
[1], 298.15 K, x2 = 0.6016	1197.5	–
[1], 298.15 K, x2 = 0.6455	1198.6	–
[1], 298.15 K, x2 = 0.6837	1199.5	–
[1], 298.15 K, x2 = 0.7793	1201.3	–
[1], 298.15 K, x2 = 0.8867	1202.9	–
[1], 303.15 K, x2 = 0.1007	1155.7	–
[1], 303.15 K, x2 = 0.2066	1171.1	–
[1], 303.15 K, x2 = 0.2597	1176.4	–
[1], 303.15 K, x2 = 0.3069	1180.1	–
[1], 303.15 K, x2 = 0.3957	1185.6	–
[1], 303.15 K, x2 = 0.41	1186.3	–
[1], 303.15 K, x2 = 0.4866	1189.7	–
[1], 303.15 K, x2 = 0.5058	1190.4	–
[1], 303.15 K, x2 = 0.6016	1193.5	–
[1], 303.15 K, x2 = 0.6455	1194.7	–
[1], 303.15 K, x2 = 0.6837	1195.6	–
[1], 303.15 K, x2 = 0.7793	1197.5	–
[1], 303.15 K, x2 = 0.8867	1199.2	–
[1], 308.15 K, x2 = 0.1007	1150	–
[1], 308.15 K, x2 = 0.2066	1166	–
[1], 308.15 K, x2 = 0.2597	1171.5	–
[1], 308.15 K, x2 = 0.3069	1175.4	–
[1], 308.15 K, x2 = 0.3957	1181.2	–
[1], 308.15 K, x2 = 0.41	1181.9	–
[1], 308.15 K, x2 = 0.4866	1185.5	–
[1], 308.15 K, x2 = 0.5058	1186.3	–
[1], 308.15 K, x2 = 0.6016	1189.5	–
[1], 308.15 K, x2 = 0.6455	1190.8	–
[1], 308.15 K, x2 = 0.6837	1191.7	–
[1], 308.15 K, x2 = 0.7793	1193.7	–
[1], 308.15 K, x2 = 0.8867	1195.6	–
[1], 313.15 K, x2 = 0.1007	1144.4	–
[1], 313.15 K, x2 = 0.2066	1161.1	–
[1], 313.15 K, x2 = 0.2597	1166.8	–
[1], 313.15 K, x2 = 0.3069	1170.9	–
[1], 313.15 K, x2 = 0.3957	1176.9	–
[1], 313.15 K, x2 = 0.41	1177.6	–
[1], 313.15 K, x2 = 0.4866	1181.4	–
[1], 313.15 K, x2 = 0.5058	1182.2	–
[1], 313.15 K, x2 = 0.6016	1185.5	–
[1], 313.15 K, x2 = 0.6455	1186.9	–
[1], 313.15 K, x2 = 0.6837	1187.9	–
[1], 313.15 K, x2 = 0.7793	1190	–
[1], 313.15 K, x2 = 0.8867	1191.9	–
[1], 318.15 K, x2 = 0.1007	1138.7	–
[1], 318.15 K, x2 = 0.2066	1156.1	–
[1], 318.15 K, x2 = 0.2597	1162.1	–
[1], 318.15 K, x2 = 0.3069	1166.3	–
[1], 318.15 K, x2 = 0.3957	1172.5	–
[1], 318.15 K, x2 = 0.41	1173.3	–
[1], 318.15 K, x2 = 0.4866	1177.2	–
[1], 318.15 K, x2 = 0.5058	1178	–
[1], 318.15 K, x2 = 0.6016	1181.6	–
[1], 318.15 K, x2 = 0.6455	1183	–
[1], 318.15 K, x2 = 0.6837	1184	–
[1], 318.15 K, x2 = 0.7793	1186.3	–
[1], 318.15 K, x2 = 0.8867	1188.3	–
[2], 293.15 K, x2 = 0.0525	–	119.2
[2], 293.15 K, x2 = 0.1029	–	131.6
[2], 293.15 K, x2 = 0.1943	–	154.9
[2], 293.15 K, x2 = 0.2941	–	180.5
[2], 293.15 K, x2 = 0.3911	–	205.4
[2], 293.15 K, x2 = 0.5609	–	248.8
[2], 293.15 K, x2 = 0.7062	–	285.8
[2], 293.15 K, x2 = 0.7578	–	299
[2], 293.15 K, x2 = 0.897	–	334.5
[2], 293.15 K, x2 = 0.9436	–	346.4
[2], 293.15 K, x2 = 0.9716	–	353.6
[2], 298.15 K, x2 = 0.0525	–	119.6
[2], 298.15 K, x2 = 0.1029	–	132.1
[2], 298.15 K, x2 = 0.1943	–	155.6
[2], 298.15 K, x2 = 0.2941	–	181.5
[2], 298.15 K, x2 = 0.3911	–	206.7
[2], 298.15 K, x2 = 0.5609	–	250.6
[2], 298.15 K, x2 = 0.7062	–	288.1
[2], 298.15 K, x2 = 0.7578	–	301.4
[2], 298.15 K, x2 = 0.897	–	337.4
[2], 298.15 K, x2 = 0.9436	–	349.5
[2], 298.15 K, x2 = 0.9716	–	356.7
[2], 303.15 K, x2 = 0.0525	–	120
[2], 303.15 K, x2 = 0.1029	–	132.7
[2], 303.15 K, x2 = 0.1943	–	156.4
[2], 303.15 K, x2 = 0.2941	–	182.5
[2], 303.15 K, x2 = 0.3911	–	208
[2], 303.15 K, x2 = 0.5609	–	252.3
[2], 303.15 K, x2 = 0.7062	–	290.2
[2], 303.15 K, x2 = 0.7578	–	303.7
[2], 303.15 K, x2 = 0.897	–	340
[2], 303.15 K, x2 = 0.9436	–	352.3
[2], 303.15 K, x2 = 0.9716	–	359.5
[2], 308.15 K, x2 = 0.0525	–	120.5
[2], 308.15 K, x2 = 0.1029	–	133.3
[2], 308.15 K, x2 = 0.1943	–	157.1
[2], 308.15 K, x2 = 0.2941	–	183.3
[2], 308.15 K, x2 = 0.3911	–	209.1
[2], 308.15 K, x2 = 0.5609	–	253.8
[2], 308.15 K, x2 = 0.7062	–	292.1
[2], 308.15 K, x2 = 0.7578	–	305.6
[2], 308.15 K, x2 = 0.897	–	342.3
[2], 308.15 K, x2 = 0.9436	–	354.7
[2], 308.15 K, x2 = 0.9716	–	362
[2], 313.15 K, x2 = 0.0525	–	121
[2], 313.15 K, x2 = 0.1029	–	133.9
[2], 313.15 K, x2 = 0.1943	–	157.8
[2], 313.15 K, x2 = 0.2941	–	184.1
[2], 313.15 K, x2 = 0.3911	–	210.1
[2], 313.15 K, x2 = 0.5609	–	255.1
[2], 313.15 K, x2 = 0.7062	–	293.7
[2], 313.15 K, x2 = 0.7578	–	307.3
[2], 313.15 K, x2 = 0.897	–	344.2
[2], 313.15 K, x2 = 0.9436	–	356.8
[2], 313.15 K, x2 = 0.9716	–	364.1
[2], 318.15 K, x2 = 0.0525	–	121.4
[2], 318.15 K, x2 = 0.1029	–	134.3
[2], 318.15 K, x2 = 0.1943	–	158.3
[2], 318.15 K, x2 = 0.2941	–	184.7
[2], 318.15 K, x2 = 0.3911	–	210.9
[2], 318.15 K, x2 = 0.5609	–	256.2
[2], 318.15 K, x2 = 0.7062	–	295.1
[2], 318.15 K, x2 = 0.7578	–	308.7
[2], 318.15 K, x2 = 0.897	–	345.9
[2], 318.15 K, x2 = 0.9436	–	358.5
[2], 318.15 K, x2 = 0.9716	–	365.8
